Measured values from US8580832B2, “Substituted phenoxy aminothiazolones as estrogen related receptor-α modulators” (Janssen Pharmaceutica N.V., priority 2007, dated 2013).

Target: T1, ERR1 (also known as ERR-α or ERR-1) (Homo sapiens, UniProt P11474)
T1 construct: the ^6His-tagged-ERR1 LBD
T1 sequence (P11474 193-421 limits assumed): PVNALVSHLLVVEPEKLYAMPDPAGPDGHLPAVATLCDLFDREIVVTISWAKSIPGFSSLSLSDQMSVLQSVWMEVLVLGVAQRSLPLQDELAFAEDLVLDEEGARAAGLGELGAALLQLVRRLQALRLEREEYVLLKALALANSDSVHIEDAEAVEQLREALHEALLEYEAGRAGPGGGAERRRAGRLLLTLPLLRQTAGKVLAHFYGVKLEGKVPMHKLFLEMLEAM
Assay: TR-FRET assay: disruption of co-activator peptide binding to ERR1 LBD
Format: biochemical
Conditions: 6His-tagged ERR1 LBD 6 nM, GST-SRC-2 peptide 6 nM, 25° C., 4-18 hours; average of 3 independent experiments
Procedure, shortened: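 The 6His-ERR1 LBD and a GST-hSRC2 co-activator peptide were detected by α-GST Eu cryptate and α-6His-XL665 TR-FRET. Buffer was 25 mM Tris pH 8, 2.5 mM Hepes, 20 mM KCl, 1 mM DTT, 0.05 mg/mL BSA, equilibrated 4-18 h at 25° C. Dose-response curves were fitted hyperbolically and averaged over 3 independent experiments.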

SMILES | EC50
N#Cc1ccc(Oc2ccc(/C=C3\SC(NC4CCN(CCO)CC4)=NC3=O)cc2F)c(C(F)(F)F)c1 [Example 112, 4-(2-Fluoro-4-{2-[1-(2-hydroxy-ethyl)-piperidin-4-ylamino]-4-oxo-4H-thiazol-5-ylidenemethyl}-phenoxy)-3-trifluoromethyl-benzonitrile] | 0.026 µM
COc1cc(/C=C2\SC(N3CCCC(O)C3)=NC2=O)ccc1Oc1ccc(C(N)=O)cc1C(F)(F)F (stereo not drawn) [Example 114, 4-{4-[2-(3-Hydroxy-piperidin-1-yl)-4-oxo-4H-thiazol-5-ylidenemethyl]-2-methoxy-phenoxy}-3-trifluoromethyl-benzamide] | 0.3 µM
COc1cc(/C=C2\SC(N3CCNC(=O)C3)=NC2=O)ccc1Oc1ccc(C(N)=O)cc1C(F)(F)F [Example 115, 4-{2-Methoxy-4-[4-oxo-2-(3-oxo-piperazin-1-yl)-4H-thiazol-5-ylidenemethyl]-phenoxy}-3-trifluoromethyl-benzamide] | 0.089 µM
N#Cc1ccc(Oc2ccc(/C=C3\SC(N4CC(C(=O)O)C4)=NC3=O)cc2F)c(C(F)(F)F)c1 [Example 116, 1-{5-[4-(4-Cyano-2-trifluoromethyl-phenoxy)-3-fluoro-benzylidene]-4-oxo-4,5-dihydro-thiazol-2-yl}-azetidine-3-carboxylic acid] | 0.034 µM
COc1cc(/C=C2\SC(N(CCO)CCO)=NC2=O)ccc1Oc1ccc(C(F)(F)F)cc1C(F)(F)F [Example 117, 2-[Bis-(2-hydroxy-ethyl)-amino]-5-[4-(2,4-bis-trifluoromethyl-phenoxy)-3-methoxy-benzylidene]-thiazol-4-one] | 0.04 µM
CC(C)c1ccccc1Oc1ccc(/C=C2\SC(N3CC(C(=O)O)C3)=NC2=O)cc1 [Example 118, 1-{5-[4-(2-Isopropyl-phenoxy)-benzylidene]-4-oxo-4,5-dihydro-thiazol-2-yl}-azetidine-3-carboxylic acid] | 0.021 µM

The next molecules have a lower EC50 than those just listed; values first:

EC50 | SMILES
0.015 µM | COc1cc(/C=C2\SC(NC3CCN(CCO)CC3)=NC2=O)ccc1Oc1ccc(C#N)cc1C(F)(F)F [Example 111, 4-(4-{2-[1-(2-Hydroxy-ethyl)-piperidin-4-ylamino]-4-oxo-4H-thiazol-5-ylidenemethyl}-2-methoxy-phenoxy)-3-trifluoromethyl-benzonitrile]
0.014 µM | COC(=O)c1ccc(Oc2ccc(/C=C3\SC(N4CCC(C(=O)OC)CC4)=NC3=O)cc2OC)c(C(F)(F)F)c1 [Example 113, 1-{5-[3-Methoxy-4-(4-methoxycarbonyl-2-trifluoromethyl-phenoxy)-benzylidene]-4-oxo-4,5-dihydro-thiazol-2-yl}-piperidine-4-carboxylic acid methyl ester]
0.01 µM | COc1cc(/C=C2\SC(N3CC(C(=O)O)C3)=NC2=O)ccc1Oc1ccccc1C(F)(F)F [Example 119, 1-{5-[3-Methoxy-4-(2-trifluoromethyl-phenoxy)-benzylidene]-4-oxo-4,5-dihydro-thiazol-2-yl}-azetidine-3-carboxylic acid]
